pIC50: −log10 of the molar value.
Experiments:
[1] = target: Ephrin type-A receptor 2 (Homo sapiens, UniProt P29317); experiment: Inhibition of recombinant human N-terminal His6-tagged EphA2 (N598 to R890 residues) expressed in baculovirus using poly-EY as substrate after 180 mins by luciferase coupled chemiluminescence assay
[2] = target: T1, Ephrin type-B receptor 4 (Homo sapiens, UniProt P54760); experiment: Inhibition of recombinant human N-terminal His6-tagged EphB4 kinase domain (E605 to E890 residues) expressed in baculovirus using poly-AEKY as substrate after 150 mins in presence of gamma33P-ATP by liquid scintillation spectrometry
T1 sequence (P54760 whole entry): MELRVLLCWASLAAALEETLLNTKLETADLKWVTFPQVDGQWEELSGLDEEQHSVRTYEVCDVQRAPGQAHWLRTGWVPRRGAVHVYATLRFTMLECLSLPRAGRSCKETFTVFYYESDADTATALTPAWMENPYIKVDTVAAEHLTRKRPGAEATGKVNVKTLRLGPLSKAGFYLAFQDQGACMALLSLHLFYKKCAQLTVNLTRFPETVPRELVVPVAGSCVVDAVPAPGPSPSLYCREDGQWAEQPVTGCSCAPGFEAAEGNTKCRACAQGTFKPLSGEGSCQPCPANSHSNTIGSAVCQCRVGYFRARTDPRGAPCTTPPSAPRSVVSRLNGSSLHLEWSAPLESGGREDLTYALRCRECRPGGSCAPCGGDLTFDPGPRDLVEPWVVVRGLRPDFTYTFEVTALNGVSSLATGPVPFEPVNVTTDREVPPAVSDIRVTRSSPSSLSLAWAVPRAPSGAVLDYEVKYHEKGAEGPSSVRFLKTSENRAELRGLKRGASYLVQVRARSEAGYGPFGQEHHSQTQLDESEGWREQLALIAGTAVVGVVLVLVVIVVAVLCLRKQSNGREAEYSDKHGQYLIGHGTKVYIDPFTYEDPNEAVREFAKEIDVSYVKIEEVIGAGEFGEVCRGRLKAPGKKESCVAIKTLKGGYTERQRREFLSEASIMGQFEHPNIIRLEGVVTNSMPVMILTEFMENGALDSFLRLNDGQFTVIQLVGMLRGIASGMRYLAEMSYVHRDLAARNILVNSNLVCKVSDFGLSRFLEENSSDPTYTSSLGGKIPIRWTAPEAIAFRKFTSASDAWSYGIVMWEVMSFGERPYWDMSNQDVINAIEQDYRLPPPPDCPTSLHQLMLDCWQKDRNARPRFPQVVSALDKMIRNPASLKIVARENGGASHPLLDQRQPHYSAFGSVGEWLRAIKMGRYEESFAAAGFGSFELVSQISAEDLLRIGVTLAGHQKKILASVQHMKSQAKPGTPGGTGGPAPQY

[3] = target: Receptor tyrosine-protein kinase erbB-2 (Homo sapiens, UniProt P04626); experiment: Inhibition of recombinant human N-terminal GST His6-tagged thrombin cleavage site-fused ErbB2 kinase domain (Q679 to V1255 residues) expressed in baculovirus infected insect Sf9 cells using biotinylated poly-EY as substrate after 60 mins by alphascreen assay
[4] = target: Vascular endothelial growth factor receptor 2 (Homo sapiens, UniProt P35968); experiment: Inhibition of recombinant human N-terminal GST-fused KDR (D807 to V1356 residues) expressed in baculovirus infected […] insect Sf9 cells using poly-EY as substrate after 240 mins by luciferase coupled chemiluminescence assay
[5] = target: Vascular endothelial growth factor receptor 1 (Homo sapiens, UniProt P17948); experiment: Inhibition of recombinant human N-terminal GST-tagged factor 10a cleavage site-fused Flt1 (K784 to I1338 residues) expressed in baculovirus infected insect Sf9 cells using poly-EY as substrate after 120 mins in presence of gamma33P-ATP by liquid scintillation spectrometry
Sequence of Vascular endothelial growth factor receptor 1 (P17948 whole entry, the tested form may be a part): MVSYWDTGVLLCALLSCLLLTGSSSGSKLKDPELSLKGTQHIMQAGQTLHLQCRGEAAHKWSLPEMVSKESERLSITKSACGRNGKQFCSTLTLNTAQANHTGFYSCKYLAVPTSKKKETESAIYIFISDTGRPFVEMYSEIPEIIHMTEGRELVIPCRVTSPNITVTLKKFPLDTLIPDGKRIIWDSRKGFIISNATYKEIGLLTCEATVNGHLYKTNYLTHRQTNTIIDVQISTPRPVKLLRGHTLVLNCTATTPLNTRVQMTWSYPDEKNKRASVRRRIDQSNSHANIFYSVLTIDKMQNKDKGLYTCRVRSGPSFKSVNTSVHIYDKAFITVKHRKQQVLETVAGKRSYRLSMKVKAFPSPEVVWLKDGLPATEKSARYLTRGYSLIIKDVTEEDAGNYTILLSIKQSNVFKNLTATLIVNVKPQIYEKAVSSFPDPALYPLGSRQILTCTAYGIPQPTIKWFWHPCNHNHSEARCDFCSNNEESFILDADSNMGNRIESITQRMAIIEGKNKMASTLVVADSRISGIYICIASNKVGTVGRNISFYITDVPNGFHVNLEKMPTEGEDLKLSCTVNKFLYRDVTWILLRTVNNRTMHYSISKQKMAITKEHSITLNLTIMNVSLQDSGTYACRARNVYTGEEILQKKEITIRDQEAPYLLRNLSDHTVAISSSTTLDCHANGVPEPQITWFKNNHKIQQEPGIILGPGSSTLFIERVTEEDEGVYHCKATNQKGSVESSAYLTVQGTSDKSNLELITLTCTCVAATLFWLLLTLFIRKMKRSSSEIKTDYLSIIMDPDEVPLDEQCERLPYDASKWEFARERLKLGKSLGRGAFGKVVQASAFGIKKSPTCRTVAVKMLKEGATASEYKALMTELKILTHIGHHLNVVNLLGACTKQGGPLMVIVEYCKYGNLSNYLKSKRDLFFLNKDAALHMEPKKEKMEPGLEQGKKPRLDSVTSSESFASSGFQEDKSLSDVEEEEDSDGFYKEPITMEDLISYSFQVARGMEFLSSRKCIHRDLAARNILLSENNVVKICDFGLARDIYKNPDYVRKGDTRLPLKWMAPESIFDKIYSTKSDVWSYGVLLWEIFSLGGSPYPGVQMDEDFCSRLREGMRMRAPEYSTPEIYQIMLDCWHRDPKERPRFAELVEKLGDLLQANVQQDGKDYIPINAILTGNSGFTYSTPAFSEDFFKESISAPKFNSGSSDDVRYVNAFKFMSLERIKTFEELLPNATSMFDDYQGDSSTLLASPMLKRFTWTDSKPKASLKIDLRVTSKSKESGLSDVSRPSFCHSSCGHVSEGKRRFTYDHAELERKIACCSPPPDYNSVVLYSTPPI

Sequence of Ephrin type-A receptor 2 (P29317 whole entry, the tested form may be a part): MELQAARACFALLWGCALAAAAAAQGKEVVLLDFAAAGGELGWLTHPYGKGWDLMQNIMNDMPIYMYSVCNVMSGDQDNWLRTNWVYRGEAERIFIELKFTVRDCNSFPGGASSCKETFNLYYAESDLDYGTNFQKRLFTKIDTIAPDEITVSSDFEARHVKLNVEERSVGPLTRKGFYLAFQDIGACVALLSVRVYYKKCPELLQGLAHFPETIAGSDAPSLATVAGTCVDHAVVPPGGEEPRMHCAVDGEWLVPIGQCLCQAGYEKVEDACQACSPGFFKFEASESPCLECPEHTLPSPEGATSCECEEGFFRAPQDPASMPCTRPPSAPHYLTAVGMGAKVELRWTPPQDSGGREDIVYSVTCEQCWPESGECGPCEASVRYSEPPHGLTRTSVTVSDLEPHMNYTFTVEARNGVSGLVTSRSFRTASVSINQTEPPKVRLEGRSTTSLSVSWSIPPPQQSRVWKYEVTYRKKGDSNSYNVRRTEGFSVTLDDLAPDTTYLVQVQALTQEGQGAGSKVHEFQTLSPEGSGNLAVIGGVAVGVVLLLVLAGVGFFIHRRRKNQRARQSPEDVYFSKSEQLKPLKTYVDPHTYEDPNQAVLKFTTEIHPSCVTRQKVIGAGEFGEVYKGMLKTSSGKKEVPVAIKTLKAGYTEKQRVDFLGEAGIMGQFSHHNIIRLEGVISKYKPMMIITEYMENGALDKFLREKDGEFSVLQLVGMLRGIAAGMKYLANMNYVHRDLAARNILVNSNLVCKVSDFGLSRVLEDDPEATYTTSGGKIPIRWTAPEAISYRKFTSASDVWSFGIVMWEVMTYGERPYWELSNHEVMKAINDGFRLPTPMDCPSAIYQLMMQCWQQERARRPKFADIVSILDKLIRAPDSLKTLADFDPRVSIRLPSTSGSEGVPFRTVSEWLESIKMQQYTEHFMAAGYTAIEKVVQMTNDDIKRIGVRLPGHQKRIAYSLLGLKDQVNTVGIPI
Sequence of Vascular endothelial growth factor receptor 2 (P35968 whole entry, the tested form may be a part): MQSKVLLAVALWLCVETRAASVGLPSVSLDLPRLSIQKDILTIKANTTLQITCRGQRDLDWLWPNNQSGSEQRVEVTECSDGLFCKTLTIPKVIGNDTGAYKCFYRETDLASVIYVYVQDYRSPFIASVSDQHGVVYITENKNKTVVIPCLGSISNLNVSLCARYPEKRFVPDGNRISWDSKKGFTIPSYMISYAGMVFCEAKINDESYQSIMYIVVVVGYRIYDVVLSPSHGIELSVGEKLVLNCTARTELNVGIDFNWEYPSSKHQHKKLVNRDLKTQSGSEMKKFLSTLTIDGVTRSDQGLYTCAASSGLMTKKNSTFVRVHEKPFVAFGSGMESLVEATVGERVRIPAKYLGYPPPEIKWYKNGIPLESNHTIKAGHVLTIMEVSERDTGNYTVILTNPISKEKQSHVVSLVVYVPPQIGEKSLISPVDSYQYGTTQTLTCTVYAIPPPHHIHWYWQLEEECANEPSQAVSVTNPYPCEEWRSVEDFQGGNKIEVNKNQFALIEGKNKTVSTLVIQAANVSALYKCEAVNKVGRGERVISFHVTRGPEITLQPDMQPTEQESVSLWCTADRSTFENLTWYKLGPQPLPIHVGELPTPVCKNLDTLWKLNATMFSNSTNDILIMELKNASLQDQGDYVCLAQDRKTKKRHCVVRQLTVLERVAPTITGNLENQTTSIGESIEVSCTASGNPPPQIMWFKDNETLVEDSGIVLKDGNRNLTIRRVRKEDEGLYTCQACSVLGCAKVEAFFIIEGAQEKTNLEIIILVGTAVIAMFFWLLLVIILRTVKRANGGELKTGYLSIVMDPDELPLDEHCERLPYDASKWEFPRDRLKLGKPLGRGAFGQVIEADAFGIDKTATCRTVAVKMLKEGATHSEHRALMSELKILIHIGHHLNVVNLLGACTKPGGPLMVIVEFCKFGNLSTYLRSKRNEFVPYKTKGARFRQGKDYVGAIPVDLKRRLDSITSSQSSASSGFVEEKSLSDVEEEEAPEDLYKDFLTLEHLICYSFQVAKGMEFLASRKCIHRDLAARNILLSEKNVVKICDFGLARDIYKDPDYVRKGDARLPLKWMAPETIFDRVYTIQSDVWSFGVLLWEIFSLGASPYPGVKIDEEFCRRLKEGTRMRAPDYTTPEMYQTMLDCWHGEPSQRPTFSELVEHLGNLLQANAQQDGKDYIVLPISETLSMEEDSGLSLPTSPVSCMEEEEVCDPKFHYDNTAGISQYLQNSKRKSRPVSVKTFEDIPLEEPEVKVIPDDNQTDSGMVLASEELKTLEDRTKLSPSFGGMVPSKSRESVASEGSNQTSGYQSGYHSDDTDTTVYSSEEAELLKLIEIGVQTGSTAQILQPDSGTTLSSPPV
Sequence of Receptor tyrosine-protein kinase erbB-2 (P04626 whole entry, the tested form may be a part): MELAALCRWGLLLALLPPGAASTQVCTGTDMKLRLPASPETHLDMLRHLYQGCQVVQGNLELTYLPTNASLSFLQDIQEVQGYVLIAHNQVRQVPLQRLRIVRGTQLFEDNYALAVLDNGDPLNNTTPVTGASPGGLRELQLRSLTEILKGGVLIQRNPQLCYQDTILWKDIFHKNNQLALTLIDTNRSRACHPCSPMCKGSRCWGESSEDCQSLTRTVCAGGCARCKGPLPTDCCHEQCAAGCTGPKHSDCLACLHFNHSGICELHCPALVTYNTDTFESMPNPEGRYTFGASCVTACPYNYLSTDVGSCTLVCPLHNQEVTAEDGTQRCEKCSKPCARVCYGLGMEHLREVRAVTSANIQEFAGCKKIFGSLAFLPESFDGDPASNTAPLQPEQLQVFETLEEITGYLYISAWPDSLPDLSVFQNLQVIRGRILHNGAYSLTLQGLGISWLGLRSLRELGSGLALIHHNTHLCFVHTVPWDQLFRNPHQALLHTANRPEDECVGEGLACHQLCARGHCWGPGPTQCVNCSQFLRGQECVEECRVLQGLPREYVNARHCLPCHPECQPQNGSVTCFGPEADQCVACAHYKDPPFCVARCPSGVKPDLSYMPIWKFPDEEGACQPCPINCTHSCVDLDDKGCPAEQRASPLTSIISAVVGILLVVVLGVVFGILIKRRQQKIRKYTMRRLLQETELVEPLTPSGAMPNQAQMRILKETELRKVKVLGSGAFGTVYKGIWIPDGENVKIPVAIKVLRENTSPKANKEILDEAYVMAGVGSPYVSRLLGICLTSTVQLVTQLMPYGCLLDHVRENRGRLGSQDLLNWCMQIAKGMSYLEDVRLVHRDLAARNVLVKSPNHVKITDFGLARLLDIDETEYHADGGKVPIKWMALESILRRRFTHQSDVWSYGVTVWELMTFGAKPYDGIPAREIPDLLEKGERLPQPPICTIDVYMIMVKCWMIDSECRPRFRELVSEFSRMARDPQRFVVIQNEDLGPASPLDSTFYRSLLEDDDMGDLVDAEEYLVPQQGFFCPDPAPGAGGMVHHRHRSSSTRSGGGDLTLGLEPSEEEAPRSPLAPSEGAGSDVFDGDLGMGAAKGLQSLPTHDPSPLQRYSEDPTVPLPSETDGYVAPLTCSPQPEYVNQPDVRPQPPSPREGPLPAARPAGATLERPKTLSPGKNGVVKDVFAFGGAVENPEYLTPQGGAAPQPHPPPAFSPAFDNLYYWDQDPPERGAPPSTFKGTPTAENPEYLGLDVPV

SMILES	pIC50 [1]	pIC50 [2]	pIC50 [3]	pIC50 [4]	pIC50 [5]
COc1cc2c(Nc3cc(Cl)c(Cl)cc3F)ncnc2cc1OC[C@@H]1CN2CCOC[C@H]2CO1	6.00 to 7.30	> 7.30	6.00 to 7.30	6.00 to 7.30	6.00 to 7.30
COc1cc2c(Nc3ccc(Br)c(Cl)c3F)ncnc2cc1OC[C@H]1CN2CCOC[C@H]2CO1	6.00 to 7.30	6.00 to 7.30	6.00 to 7.30	> 7.30	6.00 to 7.30
COc1cc2c(Nc3ccc(Cl)c(Cl)c3)ncnc2cc1OC[C@H]1CN2CCC[C@@H]2CO1	6.00 to 7.30	> 7.30	6.00 to 7.30	> 7.30	6.00 to 7.30
COc1cc2c(Nc3cc(Cl)c(Br)cc3F)ncnc2cc1OC[C@@H]1CN2CCOC[C@H]2CO1	6.00 to 7.30	> 7.30	6.00 to 7.30	6.00 to 7.30	6.00 to 7.30
COc1cc2c(Nc3ccc(Cl)c(Cl)c3)ncnc2cc1OC[C@@H]1CN2CCC[C@H]2CO1	> 7.30	> 7.30	6.00 to 7.30	> 7.30	6.00 to 7.30
COc1cc2c(Nc3ccc(Cl)c(Cl)c3)ncnc2cc1OC[C@H]1CN2CCC[C@H]2CO1	> 7.30	> 7.30	> 7.30	> 7.30	6.00 to 7.30
COc1cc2c(Nc3ccc(Cl)c(Cl)c3)ncnc2cc1OCC1CN2CCOCC2CO1 (stereo not given)	6.00 to 7.30	> 7.30	> 7.30	> 7.30	6.00 to 7.30
COc1cc2c(Nc3ccc(F)c(Cl)c3F)ncnc2cc1OC[C@@H]1CN2CCOC[C@H]2CO1	6.00 to 7.30	> 7.30	6.00 to 7.30	6.00 to 7.30	6.00 to 7.30
COc1cc2c(Nc3ccc(F)c(Cl)c3F)ncnc2cc1OC[C@H]1CN2CCOC[C@H]2CO1	6.00 to 7.30	6.00 to 7.30	6.00 to 7.30	6.00 to 7.30	6.00 to 7.30
COc1cc2c(Nc3ccc(Cl)c(Cl)c3F)ncnc2cc1OC[C@H]1CN2CCOC[C@H]2CO1	6.00 to 7.30	> 7.30	6.00 to 7.30	> 7.30	6.00 to 7.30
COc1cc2c(Nc3ccc(Cl)c(Cl)c3)ncnc2cc1OC[C@@H]1CN2CCC[C@@H]2CO1	> 7.30	> 7.30	> 7.30	> 7.30	6.00 to 7.30

Further lines, results first:

pIC50 [1]	pIC50 [2]	pIC50 [3]	pIC50 [4]	pIC50 [5]	SMILES
> 7.30	> 7.30	> 7.30	> 7.30	> 7.30	COc1cc2c(Nc3ccc(Cl)c(Cl)c3F)ncnc2cc1OC[C@@H]1CN2CCOC[C@H]2CO1
6.00 to 7.30	> 7.30	4.70 to 6.00	6.00 to 7.30	6.00 to 7.30	COc1cc2c(Nc3ccc(Br)c(Cl)c3Cl)ncnc2cc1OC[C@@H]1CN2CCOC[C@H]2CO1
> 7.30	> 7.30	6.00 to 7.30	6.00 to 7.30	6.00 to 7.30	COc1cc2c(Nc3ccc(F)c(Cl)c3F)ncnc2cc1OC[C@@H]1CN2CCC[C@H]2CO1
> 7.30	> 7.30	6.00 to 7.30	> 7.30	6.00 to 7.30	COc1cc2c(Nc3ccc(Br)c(Cl)c3Cl)ncnc2cc1OC[C@@H]1CN2CCC[C@H]2CO1
> 7.30	> 7.30	> 7.30	> 7.30	> 7.30	COc1cc2c(Nc3ccc(Br)c(Cl)c3F)ncnc2cc1OC[C@@H]1CN2CCOC[C@H]2CO1
> 7.30	> 7.30	6.00 to 7.30	> 7.30	6.00 to 7.30	COc1cc2c(Nc3ccc(Cl)c(Cl)c3F)ncnc2cc1OC[C@@H]1CN2CCC[C@H]2CO1
> 7.30	> 7.30	6.00 to 7.30	> 7.30	> 7.30	COc1cc2c(Nc3ccc(Br)c(Cl)c3F)ncnc2cc1OC[C@@H]1CN2CCC[C@H]2CO1
> 7.30	> 7.30	6.00 to 7.30	> 7.30	6.00 to 7.30	COc1cc2c(Nc3cc(Cl)c(Br)cc3F)ncnc2cc1OC[C@@H]1CN2CCC[C@H]2CO1

From ChEMBL document CHEMBL3882729, “Receptor-type kinase modulators and methods of use” (2009)
